We go through eight molecules from US20240270821A1, “GIP/GLP1/GCG TRI-RECEPTOR AGONISTS AND USES THEREOF” (priority 2023, published 2024).

Like-named read-outs stand apart in the source and are kept apart here. Marks after values point to notes of the source that are not given here. Starred links: 1 amine or outer side, 2 acyl side, 3 side chain; linkers in the order of their positions; H or OH if unused. Non-standard residues stand in square brackets, D forms with d. Residues, ends and D or L forms follow the SMILES beside them. Groups on a side chain read outwards from the residue. No end group written: not given here. *: point of attachment. C18 diacid = O=C(O)CCCCCCCCCCCCCCCCC(=O)*; αMePhe(2-F) = C[C@](N)(Cc1ccccc1F)C(=O)O; γGlu = O=C(O)[C@H](CCC(=O)[*:2])N[*:1]; αMe4Pal = C[C@](N)(Cc1ccncc1)C(=O)O; αMeY = C[C@](N)(Cc1ccc(O)cc1)C(=O)O; 4Pal = N[C@@H](Cc1ccncc1)C(=O)O; αMeL = CC(C)C[C@](C)(N)C(=O)O; αMeS = C[C@](N)(CO)C(=O)O; Orn = NCCC[C@H](N)C(=O)O; AEEA = NCCOCCOCC(=O)O; Aib = CC(C)(N)C(=O)O

For one data set, the target named is human GcgR (Homo sapiens, UniProt P47871). In words: Functional cAMP activity in the presence of 1% HSA. The format is cell-based. To be noted: read-out: cAMP Rel EC50, hGcgR.
Data set [1] is described as follows: Body weight in diet-induced obese C57BL/6 mice. Type of data set: in vivo. As to conditions: 10 nmol/kg SC QD, percent of starting weight, DIO mice, mean ± SEM n=5. Summed up:
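Male C57BL/6 DIO mice (41-50 g, 5 per group, randomized by weight) on calorie-rich diet received subcutaneous doses 30-90 min before dark onset, QD or Q3D for 9-16 days. Body weight measured daily, expressed as percent of starting weight, mean±SEM.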

Data set [2] deals with T1, hGIPR (Homo sapiens, UniProt P48546).
T1 sequence (P48546 22-466): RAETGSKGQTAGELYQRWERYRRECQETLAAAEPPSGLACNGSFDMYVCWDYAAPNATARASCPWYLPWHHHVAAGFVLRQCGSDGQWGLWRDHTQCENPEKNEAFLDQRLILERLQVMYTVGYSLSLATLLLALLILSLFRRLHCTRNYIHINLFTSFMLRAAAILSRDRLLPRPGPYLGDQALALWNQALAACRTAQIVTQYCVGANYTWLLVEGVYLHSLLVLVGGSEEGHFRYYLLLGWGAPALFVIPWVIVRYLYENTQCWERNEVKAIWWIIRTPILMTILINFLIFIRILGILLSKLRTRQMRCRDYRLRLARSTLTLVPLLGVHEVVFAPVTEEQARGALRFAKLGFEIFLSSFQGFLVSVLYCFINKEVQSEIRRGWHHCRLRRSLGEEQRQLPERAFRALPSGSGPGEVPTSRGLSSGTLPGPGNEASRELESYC
The experiment in a line: Functional cAMP activation in the presence of 0.1% casein (no HSA). Type of data set: cell-based. As to conditions: read-out: Relative cAMP EC50, hGIPR.

Data set [3] has as its target T1, hGIPR. The experiment in a line: Functional cAMP activity in the presence of 1% HSA. Type of data set: cell-based. To be noted: read-out: cAMP Rel EC50, hGIPR.
A short description of the next data set: in vivo. More on the design: species or system Sprague Dawley rats. To be noted: male, Sprague Dawley, rat, 4 mg/kg.
Data set [4] concerns the target T2, hGLP-1R (Homo sapiens, UniProt P43220). The experiment in a line: Functional cAMP activation in the presence of 0.1% casein (no HSA). Type of data set: cell-based. As to conditions: read-out: Relative cAMP EC50, hGLP-1R.
Another data set addresses hGcgR (Homo sapiens, UniProt P47871). The data set is described as above. Type of data set: cell-based. To be noted: read-out: Relative cAMP EC50, hGcgR.
For data set [5], the target named is T2, hGLP-1R. In words: Functional cAMP activity in the presence of 1% HSA. As to conditions: read-out: cAMP Rel EC50, hGLP-1R. Type of data set: cell-based.
[6] abbreviates: in the presence of 0.1% casein (no HSA), geometric mean.
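For Relative cAMP EC50, hGIPR in this document: intracellular cAMP rise after 30 min at 37 °C read by HTRF against a standard curve, scaled between buffer alone (0%) and top control ligand concentration (100%), four-parameter fit.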
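For Relative cAMP EC50, hGLP-1R in this document: intracellular cAMP rise after 30 min at 37 °C read by HTRF, normalized between buffer only (0%) and maximal control ligand (100%), four-parameter variable-slope fit.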
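For Relative cAMP EC50, hGcgR in this document: intracellular cAMP rise after 30 min at 37 °C, read by HTRF against a cAMP standard curve, scaled from buffer only (0%) to maximal control ligand response (100%).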

Sequence of human GcgR (P47871 26-477): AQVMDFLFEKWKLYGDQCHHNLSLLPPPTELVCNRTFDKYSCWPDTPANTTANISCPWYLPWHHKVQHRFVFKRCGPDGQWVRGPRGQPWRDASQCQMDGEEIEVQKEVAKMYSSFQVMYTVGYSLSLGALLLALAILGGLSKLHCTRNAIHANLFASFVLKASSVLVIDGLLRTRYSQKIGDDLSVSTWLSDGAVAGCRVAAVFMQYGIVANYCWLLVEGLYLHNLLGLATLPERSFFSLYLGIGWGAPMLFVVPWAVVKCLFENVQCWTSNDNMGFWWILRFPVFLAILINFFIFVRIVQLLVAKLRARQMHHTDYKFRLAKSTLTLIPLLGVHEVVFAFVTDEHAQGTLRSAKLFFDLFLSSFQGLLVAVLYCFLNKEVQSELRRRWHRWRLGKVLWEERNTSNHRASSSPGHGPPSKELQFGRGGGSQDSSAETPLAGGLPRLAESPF
Sequence of hGcgR (P47871 26-477): as above
T2 sequence (P43220 24-463): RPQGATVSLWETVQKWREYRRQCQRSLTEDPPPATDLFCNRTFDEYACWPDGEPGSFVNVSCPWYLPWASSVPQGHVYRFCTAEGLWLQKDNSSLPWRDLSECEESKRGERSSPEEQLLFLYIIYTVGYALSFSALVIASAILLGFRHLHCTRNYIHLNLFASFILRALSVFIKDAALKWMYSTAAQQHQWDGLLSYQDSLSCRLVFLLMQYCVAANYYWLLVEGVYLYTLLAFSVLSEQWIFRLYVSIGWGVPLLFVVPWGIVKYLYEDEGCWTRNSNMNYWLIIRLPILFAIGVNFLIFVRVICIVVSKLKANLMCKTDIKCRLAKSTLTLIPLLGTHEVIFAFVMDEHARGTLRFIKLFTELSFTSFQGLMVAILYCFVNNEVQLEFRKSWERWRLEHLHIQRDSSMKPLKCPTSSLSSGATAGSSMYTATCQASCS
Protocol for in vivo: The pharmacokinetics of the exemplary analogs are evaluated following a single subcutaneous (SC) administration of 10 nmol/kg (dissolved in 40 mM Tris pH8) or single 4 mg/kg (mixed with 250 mM sodium decanoate/C10 in 40 mM Tris pH8) intrajejunal (IJ) administration to male Sprague Dawley rats. Blood samples are collected over 96 hours following SC administration and 72 hours following IJ dosing, and resulting individual plasma concentrations are used to calculate pharmacokinetic parameters. Peptide plasma (K3 EDTA) concentrations are determined using a qualified LC/MS method that measured the intact mass of the analog. Each peptide and an analog as an internal standard are extracted from rat plasma using methanol. A High Resolution Instrument was used for LC/MS detection.

As usually defined, the EC50 is the concentration that produces a half-maximal response. By CL/F is commonly meant the apparent clearance, not corrected for the fraction that reaches the circulation. In general, half-life refers to the time needed for the level to fall by half in the phase considered. On to `CC[C@H](C)[C@H](NC(=O)[C@H](Cc1ccccc1)NC(=O)[C@H](CCCN)NC(=O)C(C)(C)NC(=O)[C@H](CCC(N)=O)NC(=O)[C@H](C)NC(=O)[C@H](CCCCNC(=O)COCCOCCNC(=O)CC[C@H](NC(=O)CCCCCCCCCCCCCCCCC(=O)O)C(=O)O)NC(=O)[C@H](CCCN)NC(=O)[C@H](CC(=O)O)NC(=O)[C@H](CC(C)C)NC(=O)[C@](C)(CC(C)C)NC(=O)[C@@H](NC(=O)[C@](C)(CO)NC(=O)[C@H](Cc1ccncc1)NC(=O)[C@H](CC(=O)O)NC(=O)[C@H](CO)NC(=O)[C@@H](NC(=O)[C@](C)(Cc1ccccc1F)NC(=O)[C@@H](NC(=O)CNC(=O)[C@H](CCC(N)=O)NC(=O)C(C)(C)NC(=O)[C@@H](N)Cc1ccc(O)cc1)[C@@H](C)O)[C@@H](C)O)[C@@H](C)CC)C(=O)N[C@H](CCC(=O)O)C(=O)N[C@@](C)(Cc1ccc(O)cc1)C(=O)N[C@@H](CC(C)C)C(=O)N[C@@H](CC(C)C)C(=O)N[C@@H](CCC(=O)O)C(=O)NCC(=O)NCC(=O)N1CCC[C@H]1C(=O)N[C@@H](CO)C(=O)N[C@@H](CO)C(=O)NCC(=O)N[C@@H](CCC(=O)O)C(=O)N1CCC[C@H]1C(=O)N1CCC[C@H]1C(=O)N1CCC[C@H]1C(=O)N[C@@H](CO)C(N)=O` [Example 369] (H-Y[Aib]QGT[αMePhe(2-F)]TSD[4Pal][αMeS]I[αMeL]LD[Orn]K([AEEA-γGlu-C18 diacid])AQ[Aib][Orn]FI[dE][αMeY]LLEGGPSSGEPPPS-NH2), for which the EC50 at human GcgR stood at 111 nM; on hGIPR [2] (setting [6]), 0.0263 nM; at hGIPR [3], 4.58 nM; at hGLP-1R [4] (setting [6]), 0.301 nM; on hGcgR (setting [6]), 0.873 nM; at hGLP-1R [5] it was 26.8 nM. In addition, the “Body weight (%)” value in data set [1] (14 days) is 52.91 +/− 2.17**** %. The same molecule had a CL/F in “in vivo” of 11.3 mL/min/kg. The half-life in “in vivo” was 8.2 h.
As for `CC[C@H](C)[C@H](NC(=O)[C@H](CC(C)C)NC(=O)[C@](C)(Cc1ccc(O)cc1)NC(=O)[C@@H](CCC(=O)O)NC(=O)[C@@H](NC(=O)[C@H](Cc1ccccc1)NC(=O)[C@H](CCCN)NC(=O)C(C)(C)NC(=O)[C@H](CCC(N)=O)NC(=O)[C@H](C)NC(=O)[C@H](CCCCNC(=O)COCCOCCNC(=O)CC[C@H](NC(=O)CCCCCCCCCCCCCCCCC(=O)O)C(=O)O)NC(=O)[C@H](CCCN)NC(=O)[C@H](CC(=O)O)NC(=O)[C@H](CC(C)C)NC(=O)[C@](C)(CC(C)C)NC(=O)[C@@H](NC(=O)[C@](C)(CO)NC(=O)[C@H](Cc1ccncc1)NC(=O)[C@H](CC(=O)O)NC(=O)[C@H](CO)NC(=O)[C@@H](NC(=O)[C@](C)(Cc1ccccc1F)NC(=O)[C@@H](NC(=O)CNC(=O)[C@H](CCC(N)=O)NC(=O)C(C)(C)NC(=O)[C@@H](N)Cc1ccc(O)cc1)[C@@H](C)O)[C@@H](C)O)[C@@H](C)CC)[C@@H](C)CC)C(=O)N[C@@H](CCC(=O)O)C(=O)NCC(=O)NCC(=O)N1CCC[C@H]1C(=O)N[C@@H](CO)C(=O)N[C@@H](CO)C(=O)NCC(=O)N[C@@H](CCC(=O)O)C(=O)N1CCC[C@H]1C(=O)N1CCC[C@H]1C(=O)N1CCC[C@H]1C(=O)N[C@@H](CCC(=O)O)C(N)=O` [Example 378] (H-Y[Aib]QGT[αMePhe(2-F)]TSD[4Pal][αMeS]I[αMeL]LD[Orn]K([AEEA-γGlu-C18 diacid])AQ[Aib][Orn]FI[dE][αMeY]LIEGGPSSGEPPPE-NH2), the EC50 on human GcgR was 176 nM; at hGIPR [2] (setting [6]), 0.0213 nM; at hGIPR [3] it was 2.15 nM; at hGLP-1R [4] (setting [6]), 0.251 nM; on hGcgR (setting [6]), 1.45 nM; at hGLP-1R [5], 18.8 nM. Moreover, the “Body weight (%)” value in data set [1] (15 days) was 68.84 +/− 1.37**** %. This molecule had an apparent clearance (CL/F) in the data set “in vivo” of 3.83 mL/min/kg. In addition, the half-life in “in vivo” is 8.2 h.
As to “H-Y[Aib]QGT[αMePhe(2-F)]TSD[4Pal]SI[αMeL]LD[Orn]K([AEEA-γGlu-C18 diacid])AQ[αMe4Pal][Orn]FI[dE][αMeY]LIEGGPSSGEPPPEEG-NH2 [Example 475]”, the concentration for a half-maximal effect (EC50) was 254 nM at human GcgR; 0.0173 nM at hGIPR [2]; 1.85 nM at hGIPR [3]; 0.254 nM at hGLP-1R [4]; 2.24 nM on hGcgR; 18.6 nM on hGLP-1R [5]. Also, the “Body weight (%)” value in data set [1] (9 days) was 69.34 ± 2.99 %. In addition, the CL/F in “in vivo” was 3.5 mL/min/kg. In “in vivo”, this molecule showed a half-life of 13.7 h.
Turning to “H-Y[Aib]QGT[αMePhe(2-F)]TSD[4Pal][αMeS]I[αMeL]LD[Orn]K([AEEA-AEEA-γGlu-C18 diacid])AQ[Aib][Orn]FI[dE][αMeY]LIEGGPSSGAPEPSEG-NH2 [Example 472]”, the EC50 at human GcgR worked out at 229 nM; on hGIPR [2], 0.015 nM; on hGIPR [3], 0.927 nM; on hGLP-1R [4], 0.171 nM; on hGcgR, 2.73 nM; on hGLP-1R [5] it was 7.88 nM. The “Body weight (%)” value in data set [1] (9 days) is given as 76.13 ± 2.28 %. In the data set “in vivo”, this molecule gave a CL/F of 7.33 mL/min/kg. This molecule also showed a half-life in the data set “in vivo” of 9.4 h.
Turning to “H-Y[Aib]QGT[αMePhe(2-F)]TSD[4Pal][αMeS]I[αMeL]LD[Orn]K([AEEA-γGlu-C18 diacid])AQ[Aib][Orn]FI[dE][αMeY]LIEGGPSSGEPPPEEG-NH2 [Example 462]”, the EC50 at human GcgR was 183 nM; at hGIPR [2] it was 0.0148 nM; at hGIPR [3], 1.62 nM; at hGLP-1R [4], 0.204 nM; on hGcgR, 1.69 nM; at hGLP-1R [5], 12.9 nM. Also, the “Body weight (%)” value in data set [1] (9 days) came out at 73.68 ± 2.82 %. Moreover, the apparent clearance (CL/F) in the data set “in vivo” is 10 mL/min/kg. This molecule had a half-life in the data set “in vivo” of 11 h.
For “H-Y[Aib]QGT[αMePhe(2-F)]TSD[4Pal][αMeS]I[αMeL]LD[Orn]K([AEEA-γGlu-C18 diacid])AQ[Aib][Orn]FI[dE][αMeY]LIEGGPSSGEPPPSEG-NH2 [Example 401]”, the EC50 worked out at 111 nM at human GcgR; 0.0183 nM at hGIPR [2]; 1.71 nM at hGIPR [3]; 0.213 nM at hGLP-1R [4]; 1.99 nM on hGcgR; 12 nM on hGLP-1R [5]. Besides, the “Body weight (%)” value in data set [1] (15 days) came to 71.54 ± 3.32 %. Further, in the data set “in vivo”, the apparent clearance CL/F is 16.3 mL/min/kg. For the same molecule, the half-life in the data set “in vivo” is 6.6 h.
Turning to “Y[Aib]QGT[αMePhe(2-F)]TSD[4Pal][αMeS]I[αMeL]LD[Orn]K([AEEA-γGlu-C18 diacid])AQ[Aib][Orn]FI[dE]YLIEGGPSSGEPPPSEG-NH2 [Example 463]”, the EC50 at human GcgR was 496 nM; on hGIPR [2], 0.0558 nM; at hGIPR [3] it was 6.36 nM; on hGLP-1R [4] it was 0.362 nM; at hGcgR, 4.27 nM; at hGLP-1R [5] it was 24.7 nM. For the same molecule, the “Body weight (%)” value in data set [1] (9 days) was 83.31 ± 2.10 %. The same molecule showed a CL/F in “in vivo” of 16.2 mL/min/kg. Besides, the half-life in the data set “in vivo” is 8.3 h.
On to “Y[Aib]QGT[αMePhe(2-F)]TSD[4Pal][αMeS]I[αMeL]LD[Orn]K([AEEA-γGlu-C18 diacid])AQ[Aib][Orn]FI[dE][αMeY]LIEGGPSSGAPEPSEG-NH2 [Example 429]”, for which the EC50 at human GcgR was determined as 138 nM; at hGIPR [2] it was 0.0142 nM; on hGIPR [3], 1.89 nM; on hGLP-1R [4] it was 0.178 nM; on hGcgR, 1.19 nM; on hGLP-1R [5], 12.1 nM. The “Body weight (%)” value in data set [1] (9 days) worked out at 74.66 ± 3.87 %; in data set [1] (15 days) it was 70.20 ± 1.63 %. In “in vivo”, this molecule showed a CL/F of 10.7 mL/min/kg. The same molecule showed a half-life in “in vivo” of 7.8 h.
